The results in this text go back to patent US5220042A, “1,4-benzoquinone derivatives and benzene derivatives, and process for preparing the same” (priority 1984, dated 1993).

Where two headings read alike, the source gives them in different places.

For this experiment, the system named is SRS-A release from lung fragments. As to the kind of experiment: Inhibition of SRS-A release from sensitized guinea pig lung fragments. Format: cell-based, guinea pig (Hartley strain). To be noted: Cavia porcellus. The procedure: Inhibitory activities on the release of SRS-A and histamine of the present compounds were determined.
A male guinea pig (Hartley strain) (body weight: about 300 g) was sensitized by a method according to P. Anderson: "Int. Archs. Allergey appln. Immunol., Vol. 64, pages 249-258 (1981). Thus, 30 mg/kg of cyclophosphamide was intraperitoneally administered to the guinea pig, and 2 days after 1 microgram of ovalbumin (manufactured by Sigma Chemical Co., St. Louis, Mo. U. S. A.) together with 10 mg of aluminium hydroxide gel were intraperitoneally administered so as to have the animal sesitized.
50 Days after the sesitization, the animal was killed by exsanguination, and the lung was isolated from the animal and was perfused with 20 ml of Tyrode's solution, then immersed in an ice-cooled Tyrode's solution. The parenchyma of the lung was cut by using McIlwain-type tissue chopper to make it into fragments of lung having 2 mm square and the fragments were washed with Tyrode's solution. 400 Milligrams of sectiles of lung were suspended in 3.6 ml of Tyrode's solution, and this suspension was preincubated at 37° C. for 5 minutes, then 4 microliters of dimethyl sulfoxide solution of the test compound, in the case of control 4 microliters of dimethyl sulfoxide alone was added to the suspension. 5 Minutes after, 0.4 ml of 100 micrograms/ml of ovalbumin solution added so as to release SRS-A for 10 minutes. The suspension was ice-cooled and filtered through gauze, the filtrate was centrifuged at 2,000 rpm for 10 minutes and the supernatant was collected. The supernatant was stored in freezed state at -80° C. until bio-assay was conducted.
Amounts of SRS-A and histamine contained in the supernatant were determined by bio-assay using ileum of guinea pig.
A piece of the ileum (2-3 cm of length) positioned from 15-25 cm from the opening portion of ileocecum was isolated from a male guinea pig (Hartley strain) (body weight: 400-600 g) which was fasted for 24 hours. The piece of ileum was hanged vertically in a Magnus tube which was filled with 10 ml of Tyrode's solution containing 10^-7 M of atropine sulfate under air stream conditions. The isotonic contraction of the piece of the ileum was measured at 0.5 g of load by using an isotonic transducer "TD-112S" (manufactured by Nihon Koden Co., Ltd.). The measurements were carried out after the reaction to histamine of the piece of ileum was kept constant. Bioassay of histamine was measured by using the value of contraction shown in 30 seconds after the addition of the supernatant. Bioassay of on SRS-A was measured by using the value of contraction shown at 2 minutes after the addition of the supernatant in the presence of 10^-6 M of pyrilamine (manufactured by Sigma Chemical Co.), and compared with the standard curve of crude SRS-A released from the fragments of the lung.

Where [1] appears, read: Table 2, dose 3 μM, read-out: Inhibition ratio (%) SRS-A.
[2] abbreviates: Table 2, dose 30 μM, read-out: Inhibition ratio (%) SRS-A.
[3] abbreviates: Table 2B, 3 μM, read-out: Inhibitory activities on SRS-A (%).
Where [4] appears, read: Table 2B, 30 μM, read-out: Inhibitory activities on SRS-A (%).
The mark [5] stands for this setting: Table 2B, read-out: Inhibitory activities on SRS-A (%).

For `COC1=CC(=O)C(OC)=C(CCCCCCCC#CCCCCCCCC2=C(OC)C(=O)C=C(OC)C2=O)C1=O` [Test Compound No. 20, 2,2'-(8-Hexadecynylene)bis(3,6-dimethoxy-1,4-benzoquinone)], the inhibition at 3 µM reads like this: under setting [1], 14.5%; under setting [3], 14.5%. The inhibition at 30 µM by setting is: under setting [2], 24.1%; under setting [4], 24.1%.

With `COC1=CC(=O)C(OC)=C(CCCCCCCCCC#CCCCCCCCCCC2=C(OC)C(=O)C=C(OC)C2=O)C1=O` [Test Compound No. 21, 2,2'-(10-Eicosynylene)bis(3,6-dimethoxy-1,4-benzoquinone)], the inhibition at 3 µM reads like this: under setting [1], -21.7%; under setting [3], -21.7%. Further, the inhibition at 30 µM under setting [2] is 16.6% and the inhibition at 30 µM under setting [4] was 16.6%.

Consider `COC1=CC(=O)C(OC)=C(CCC2=C(OC)C(=O)C=C(OC)C2=O)C1=O` [Test Compound No. 23, 2,2'-Ethylenebis(3,6-dimethoxy-1,4-benzoquinone)], for which the inhibition at 30 µM under setting [4] worked out at 28.6%.

With `COC1=CC(=O)C(OC)=C(CCCCC2=C(OC)C(=O)C=C(OC)C2=O)C1=O` [Test Compound No. 24, 2,2'-Tetramethylenebis(3,6-dimethoxy-1,4-benzoquinone)], under setting [5], the inhibition at 1 µM turned out to be 36.1% and the inhibition at 10 µM amounted to 67.7%.

`COC1=CC(=O)C(OC)=C(CCCOCCC2=C(OC)C(=O)C=C(OC)C2=O)C1=O` [Test Compound No. 25, 2-(3,6-Dimethoxy-1,4-benzoquinon-2-yl)ethyl 3-(3,6-dimethoxy-1,4-benzoquinon-2-yl)propyl ether]: under setting [5], the inhibition at 1 µM was 52.4% and the inhibition at 10 µM is 94.4%.

Regarding `COC1=CC(=O)C(OC)=C(COCC2=C(OC)C(=O)C=C(OC)C2=O)C1=O` [Test Compound No. 26, Bis[(3,6-Dimethoxy-1,4-benzoquinon-2-yl)methyl] ether], the inhibition at 3 µM under setting [3] is 10.9%. For the same molecule, under setting [4], the inhibition at 30 µM worked out at 39.8%.

Consider `COC1=CC(=O)C(OC)=C(CCCC2=C(OC)C(=O)C=C(OC)C2=O)C1=O` [Test Compound No. 27, 2,2'-Trimethylenebis(3,6-dimethoxy-1,4-benzoquinone)], for which, under setting [5], the inhibition at 1 µM came out at 14.9% and the inhibition at 10 µM was determined as 83.3%.

Turning to `COC1=CC(=O)C(OC)=C(CCCSSCCCC2=C(OC)C(=O)C=C(OC)C2=O)C1=O` [Test Compound No. 28, Bis[(3,6-dimethoxy-1,4-benzoquinon-2-yl)propyl] disulfide], under setting [5], the inhibition at 1 µM amounted to 30.5% and the inhibition at 10 µM worked out at 85.2%.

As for `COC1=CC(=O)C(OC)=C(CCCCCSCCCCCC2=C(OC)C(=O)C=C(OC)C2=O)C1=O` [Test Compound No. 29, Bis[(3,6-dimethoxy-1,4-benzoquinon-2-yl)-pentyl]sulfide], under setting [5], the inhibition at 1 µM worked out at 19.6% and the inhibition at 10 µM came out at 60.5%.

`CCCCC#CCCCC1=C(OC)C(=O)C=C(OC)C1=O` [Test Compound No. 35, 2,5-Dimethoxy-3-(4-nonynyl)-1,4-benzoquinone]: under setting [3], the inhibition at 3 µM is 64.9%. Further, under setting [4], the inhibition at 30 µM is 96%.

In the case of `COCOc1cc(OC)c(OCOC)c(CCCCCc2c(OC)c(OCOC)cc(OC)c2OCOC)c1OC` [Test Compound No. 36, 1,5-bis[1,4-Dimethoxy-2,5-bis(methoxymethoxy)-phen-3-yl]pentane], the inhibition at 3 µM under setting [3] was found to be 12.1%. Moreover, the inhibition at 30 µM under setting [4] was determined as 24.5%.

Turning to `COc1cc(OC(C)=O)c(OC)c(CCCCCc2c(OC)c(OC(C)=O)cc(OC)c2OC(C)=O)c1OC(C)=O` [Test Compound No. 37, 1,5-bis[1,4-Diacetoxy-2,5-(dimethoxy)phen-3-yl]-pentane], under setting [3], the inhibition at 3 µM came to 69.2%. Also, the inhibition at 30 µM under setting [4] worked out at 90%.

With `CCCCC1=C(OC)C(=O)C(CCCCCC2=C(OC)C(=O)C=C(OC)C2=O)=C(OC)C1=O` [Test Compound No. 38, 3-Butyl-2,5-dimethoxy-6-[5-(2,5-dimethoxy-1,4-benzoquinon-3-yl)pentyl]-1,4-benzoquinone], under setting [5], the inhibition at 1 µM came out at 25.1% and the inhibition at 10 µM was determined as 38.2%.

In the case of `CCCCC#CCCCC1=C(OC)C(=O)C(CCCCCC2=C(OC)C(=O)C=C(OC)C2=O)=C(OC)C1=O` [Test Compound No. 39, 2,5 Dimethoxy-3-(4-nonynyl)-6-[5-(2,5-dimethoxy-1,4-benzoquinon-3-yl)pentyl]-1,4-benzoquinone], under setting [5], the inhibition at 1 µM stood at 0% and the inhibition at 10 µM stood at 11%.

As to `COC1=CC(=O)C(OC)=C(CCCCCC2=C(OC)C(=O)C(CCO)=C(OC)C2=O)C1=O` [Test Compound No. 40, 2,5-Dimethoxy-3-(2-hydroxyethyl)-6-[5-(2,5-dimethoxy-1,4-benzoquinon-3-yl)pentyl]-1,4-benzoquinone], under setting [5], the inhibition at 1 µM worked out at 38.2% and the inhibition at 10 µM was 91.7%.

For `COC1=CC(=O)C(OC)=C(CCCCCC2=C(OC)C(=O)C(CCCCCC3=C(OC)C(=O)C=C(OC)C3=O)=C(OC)C2=O)C1=O` [Test Compound No. 41, 2,5-Dimethoxy-3,6-bis[5-(2,5-dimethoxy-1,4-benzoquinon-3-yl)-entyl]-1,4-benzoquinone], under setting [5], the inhibition at 1 µM was determined as 4.1% and the inhibition at 10 µM is 25%.

As to `COC1=CC(=O)C(OC)=C(OCCCOC2=C(OC)C(=O)C=C(OC)C2=O)C1=O` [Test Compound No. 42, 2,2'-Trimethylenedioxybis(3,6-dimethoxy-1,4-benzoquinone)], under setting [5], the inhibition at 1 µM came to 28.4% and the inhibition at 10 µM is 80%.

Take `COC1=CC(=O)C(OC)=C(CCCCCC2=C(OC)C(=O)C(SC)=C(OC)C2=O)C1=O` [Test Compound No. 43, 1-(2,5-Dimethoxy-1,4-benzoquinon-3-yl)-5-(2,5-dimethoxy-3-methylthio-1,4-benzoquinon-6-yl)pentane]: under setting [5], the inhibition at 1 µM was determined as 23.2% and the inhibition at 10 µM worked out at 79.4%.

With `CCOC(=O)C1=C(OC)C(=O)C(CCCCCC2=C(OC)C(=O)C=C(OC)C2=O)=C(OC)C1=O` [Test Compound No. 44, 1-(2,5-Dimethoxy-1,4-benzoquinon-3-yl)-5-(2,5-dimethoxy-3-ethoxycarbonyl-1,4-benzoquinon-6-yl)pentane], under setting [5], the inhibition at 1 µM is -10.5% and the inhibition at 10 µM was 18.6%.

On to `COC1=C(CCCCCC2=C(OC)C(=O)C(SC)=C(OC)C2=O)C(=O)C(OC)=C(SC)C1=O` [Test Compound No. 45, 2,2'-Pentamethylenebis(3,6-dimethoxy-5-methylthio-1,4-benzoquinone)], for which, under setting [5], the inhibition at 1 µM came to 28.1% and the inhibition at 10 µM turned out to be 50.7%.

Take `CCOC(=O)C1=C(OC)C(=O)C(CCCCCC2=C(OC)C(=O)C(C(=O)OCC)=C(OC)C2=O)=C(OC)C1=O` [Test Compound No. 46, 2,2'-Pentamethylenebis(3,6-dimethoxy-5-ethoxycarbonyl-1,4-benzoquinone)]: under setting [5], the inhibition at 1 µM amounted to 18.2% and the inhibition at 10 µM was found to be 16.2%.

For the molecule `CCCCC1=C(OC)C(=O)C(CCCCCC2=C(OC)C(=O)C(CCO)=C(OC)C2=O)=C(OC)C1=O` [Test Compound No. 47, 1-(2,5-Dimethoxy-3-butyl-1,4-benzoquinon-6-yl)-[2,5-dimethoxy-3-(2-hydroxyethyl)-1,4-benzoquinon-6-yl]pentane], under setting [5], the inhibition at 1 µM came to 15.8% and the inhibition at 10 µM amounted to 47.6%.

`COC1=C(CCO)C(=O)C(OC)=C(CCCCCC2=C(OC)C(=O)C(OC)=C(OC)C2=O)C1=O` [Test Compound No. 48, 1-(2,3,5-Trimethoxy-1,4-benzoquinon-6-yl)-5-[2,5-dimethoxy-3-(2-hydroxyethyl)-1,4-benzoquinon-6-yl]pentane]: under setting [5], the inhibition at 1 µM was 37.6% and the inhibition at 10 µM is 89.4%.

In the case of `COC1=C(CCO)C(=O)C(OC)=C(CCCCCC2=C(OC)C(=O)C(SC)=C(OC)C2=O)C1=O` [Test Compound No. 49, 1-(2,5-Dimethoxy-3-methylthio-1,4-benzoquinon-6-yl)-5-[2,5-dimethoxy-3-(2-hydroxyethyl)-1,4-benzoquinon-6-yl]pentane], under setting [5], the inhibition at 1 µM is -0.4% and the inhibition at 10 µM turned out to be 65.2%.
